{"source": "paper PMC10144566", "about": "“Pharmacokinetic Profile Evaluation of Novel Combretastatin Derivative, LASSBio-1920, as a Promising Colorectal Anticancer Agent” (Pharmaceutics, 2023)", "key": {"PAMPA-GIT permeability": {"experiment": "PAMPA-GIT permeability", "assay_type": "in vitro ADME", "details": "PAMPA-GIT, 5 h, room temperature; read-out: Pe (Experimental)", "source_text": "For this, two 96-well plates were placed one above the other, and between them, an artificial hydrophobic polyvinylidene fluoride (PVDF) membrane, which was impregnated with a lipid solution. The top plate works as the donor compartment and the bottom one as the receiver compartment.\nParallel artificial membrane permeation assay for gastrointestinal tract (GIT-PAMPA): 1% (w/v) phosphatidylcholine was mixed with dodecane as a lipid solution to impregnate the PVDF membrane between the donor and receiver plates to stimulate intestinal permeability. […] A total of 180 µL of the mixture of PBS and DMSO (v/v 95:5) was added to the recipient plate, and 180 µL of the test solution was added to the donor plate. Immediately and carefully, the donor plate was placed above the receiver plate and incubated for 5 h at room temperature. The solution captured on the receptor plate was removed and subsequently analyzed by a UV detector (SpectraMax 5®—Molecular Devices, Sao Jose, CA, USA). The experiments were performed in quadruplicate."}, "[1]": {"tested_on": "human tumor cell lines (HCT-116, SF-295, PC-3, H-1975, PC-9, N-87)", "experiment": "MTT cytotoxicity assay, panel of human tumor cell lines", "details": "72 h, read-out: IC50 values against all tumor cell lines", "procedure": "(§1) The cytotoxicity of the compounds was determined using the MTT assay [13]. Cells were seeded in 96-well plates as follows: 0.7 × 10^5 cells/well for adherent cancer cells, 0.3 × 10^5 cells/well for suspended cancer cells, and 0.2 × 10^5 cells/well for HPBMCs. […] The control group was treated with the vehicle. […] After incubation, the supernatant was decanted and replaced with fresh medium containing MTT (0.5 mg/mL)."}, "SF-295, glioblastoma": {"tested_on": "SF-295, glioblastoma", "experiment": "MTT cytotoxicity assay, SF-295", "details": "Homo sapiens, SF-295, 72 h, read-out: IC50 (95% CI) SF-295", "procedure": "as §1"}, "[2]": {"tested_on": "HPBMC, human peripheral blood mononuclear cells", "experiment": "MTT cytotoxicity assay, HPBMC", "assay_type": "cell-based", "details": "PBMC, 72 h incubation, read-out: IC50 (95% CI) HPBMC", "description": "Heparinized blood was collected from healthy, non-smoking donors who had not taken any drugs during the 15 days prior to sampling. Human peripheral blood mononuclear cells (HPBMC) were isolated by a standard density-gradient centrifugation method over Ficoll-Hypaque® media (Merck-Sigma-Aldrich, St. Louis, MO, USA). HPBMC were washed and resuspended in RPMI-1640 medium supplemented with 20% fetal bovine serum, 2 mM glutamine, 100 U/mL penicillin, and 100 µg/mL streptomycin at 37 °C with 5% CO2. Phytohemagglutinin (3%) was added at the beginning of the culture.\nThe cytotoxicity of the compounds was determined using the MTT assay. Cells were seeded in 96-well plates as follows: 0.7 × 10^5 cells/well for adherent cancer cells, 0.3 × 10^5 cells/well for suspended cancer cells, and 0.2 × 10^5 cells/well for HPBMCs. The treatments were dissolved in DMSO and added to each well using an automated liquid handler for high-throughput screening (Biomek 3000—Beckman Coulter, Inc., Fullerton, CA, USA) and incubated for either 24, 48, and 72 h. The control group was treated with the vehicle. […] After incubation, the supernatant was decanted and replaced with fresh medium containing MTT (0.5 mg/mL). Three hours later, the MTT’s formazan product was dissolved in 150 µL of pure DMSO, and absorbance was measured at 595 nm (DTX 880 Multimode Detector, Beckman Coulter, Inc., Pasadena, CA, USA).\nData were presented as mean ± standard error of the mean (SEM) from three independent experiments performed in triplicate, calculated using Prism 8.0 (GraphPad/Intuitive Software for Science, San Diego, CA, USA). The IC50 of the compounds was obtained using a non-linear regression of the cytotoxicity curves."}, "HCT-116 cells": {"tested_on": "HCT-116 cells", "experiment": "Annexin V/7-AAD apoptosis assay by flow cytometry, HCT-116", "assay_type": "cell-based, human", "details": "6 µM, 48 h, negative control 5.14 ± 0.61%", "description": "The control group received the same amount of vehicle, of which the concentration was kept constant (below 0.5%). Cell treatments were completed in triplicate. CA4 (0.2 or 0.5 µM) was used as the positive control. Stock solutions of the compounds tested were dissolved in DMSO and diluted in the culture medium to obtain the desired concentrations.\nApoptosis assay: Apoptosis was analyzed using Annexin V/7-AAD staining followed by flow cytometry. Cells were collected and stained using an Annexin V-PE/7-AAD apoptosis detection kit. Annexin V binds to phosphatidylserine (PS) in apoptosis cells as PS translocates from the inner to the outer leaflet of the cytoplasmic membrane. 7-AAD is a fluorescent intercalator of DNA impermeable to the cell, providing a reliable indication of membrane integrity. Double staining distinguishes between viable, early apoptotic, necrotic, and late apoptotic cells. The resulting fluorescence of annexin V-PE at 583 nm and 7-AAD at 680 nm of every sample was analyzed by flow cytometry. The 7-AAD-positive and annexin V-negative cells were considered necrotic. Annexin V-positive cells (7-AAD-positive and 7-AAD-negative cells) were classified as apoptotic. 7-AAD-negative and annexin V-negative cells were deemed viable."}, "[3]": {"tested_on": "PC-3, prostate adenocarcinoma", "experiment": "MTT cytotoxicity assay, PC-3", "details": "Homo sapiens, 72 h, read-out: IC50 (95% CI) PC-3", "procedure": "as §1"}, "[4]": {"target": "human CK-1δ protein kinase (Homo sapiens, UniProt P48730)", "sequence (P48730 whole entry)": "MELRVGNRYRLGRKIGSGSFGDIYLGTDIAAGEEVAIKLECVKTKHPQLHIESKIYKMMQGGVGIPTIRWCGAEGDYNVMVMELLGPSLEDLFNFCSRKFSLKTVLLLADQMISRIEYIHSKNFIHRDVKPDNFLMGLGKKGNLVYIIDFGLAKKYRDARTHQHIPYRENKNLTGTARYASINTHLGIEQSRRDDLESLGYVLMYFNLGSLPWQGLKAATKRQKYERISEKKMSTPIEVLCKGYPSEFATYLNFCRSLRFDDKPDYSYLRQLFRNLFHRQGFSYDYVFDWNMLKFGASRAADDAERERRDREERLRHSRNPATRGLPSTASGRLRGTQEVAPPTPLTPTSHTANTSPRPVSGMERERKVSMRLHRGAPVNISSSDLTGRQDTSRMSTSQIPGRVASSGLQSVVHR", "experiment": "Inhibition of human CK-1δ protein kinase (Kinase-Glo)", "assay_type": "biochemical", "details": "data not shown, read-out: inhibitory activity against human CK-1δ protein kinase", "description": "Inhibition of human CK-1δ protein kinase assay: Test compound (10 µL), CK-1δ enzyme (10 µL), and buffer solution (20 µL) were added to each well of a 96-well plate containing 0.1% casein as substrate and 4 µM ATP. The assay buffer solution constituents were 50 mM HEPES at pH 7.5, 0.01% Brij-35, […], 1 mM EDTA, and 0.01% NaN3. The final concentrations of DMSO were limited to 1%. After 60 min of incubation at 30 °C, the reaction was stopped by the addition of 40 µL of Kinase-Glo®. The luminescence was measured after 10 min using a Fluostar Optima multimode reader (BMG Labtechnologies GmbH, Offenburg, Germany). First, LASSBio-1920 was tested at concentrations of 10 µM, and 5 µM of SB415826, a potent CK-1δ enzyme inhibitor, was employed as a positive control."}, "[5]": {"experiment": "In vitro plasma stability", "assay_type": "in vitro ADME", "details": "rat plasma, 37 °C, 100 μM", "description": "The in vitro stability of the test compounds was studied in rat plasma. Blood from different Wistar rats was centrifuged with heparin at 20 °C for 15 min at 2000 rpm to separate the plasma, which was diluted to 80% with 0.05 M phosphate-buffered saline (PBS, pH 7.4) at 37 °C [23]. The test compounds were added to 200 µL of preheated plasma solution to yield a final concentration of 100 μM. The final concentration of DMSO in the incubation mixture was 0.5%. The assays were performed with agitation in a water bath at 37 °C and conducted in triplicate. Samples were taken at 0, 30, 60, and 240 min. After each sampling time, 500 µL of cold methanol was added to the mixture immediately, followed by 500 µL of cold acetonitrile. The samples were mixed and centrifuged at room temperature for 15 min at 13,000 rpm. The supernatant was analyzed by HPLC (acetonitrile/water, 7:3, with 0.1% trifluoroacetic acid) using an internal standard (4-acetylbiphenyl—final concentration of 20 µM)."}, "[6]": {"tested_on": "PC-9, lung adenocarcinoma (overexpressed EGFR with L858R mutation)", "experiment": "MTT cytotoxicity assay, PC-9", "details": "for IC50: Homo sapiens", "procedure": "as §1"}, "[7]": {"tested_on": "HCT-116 human colorectal cancer cells (colon carcinoma)", "experiment": "MTT cytotoxicity assay, HCT-116", "details": "for IC50: Homo sapiens", "procedure": "as §1"}, "[8]": {"details": "IC50 for HPBMC/IC50 for the tumor cell line, 72 h"}}, "note": "Entries after “also recorded” stand apart in the source; their conditions may differ. Like-named read-outs stand apart in the source and are kept apart here.", "data": [{"compound": "COc1cc(C(=O)N/N=C/c2cc3ccccc3s2)cc(OC)c1OC", "note": "[LASSBio-1920, (E)-N′-(Benzo[b]thiophen-2-ylmethylene)-3,4,5-trimethoxybenzohydrazide]", "values": [{"measurement": "Papp at 5 h, 0.5 mM", "setting": "PAMPA-GIT permeability", "result": 6.6, "unit": "×10⁻⁶ cm/s"}, {"measurement": "IC50", "setting": "[1]", "result": "60 to 1680", "unit": "nM"}, {"measurement": "IC50", "setting": "SF-295, glioblastoma", "result": 110, "unit": "nM"}, {"measurement": "IC50", "setting": "[2]", "result": 140, "unit": "nM"}, {"measurement": "apoptotic HCT-116 cells", "setting": "HCT-116 cells", "result": "12.62 ± 2.26", "unit": "%"}, {"measurement": "IC50", "setting": "[3]", "result": 1680, "unit": "nM"}, {"measurement": "inhibition at 10 µM", "setting": "[4]", "result": "< 10", "unit": "%"}, {"measurement": "plasma stability", "setting": "[5]", "result": "stable at all time points of the assay; also recorded: not metabolized by plasma esterases, exhibiting substantial stability; also recorded: has plasma stability"}, {"measurement": "IC50", "setting": "[6]; 24 h, read-out: IC50 (95% CI) PC-9 24 h", "result": 78800, "unit": "nM"}, {"measurement": "IC50", "setting": "[6]; 48 h, read-out: IC50 (95% CI) PC-9 48 h", "result": 1010, "unit": "nM"}, {"measurement": "IC50", "setting": "[6]; 72 h, read-out: IC50 (95% CI) PC-9 72 h", "result": 70, "unit": "nM"}, {"measurement": "SI HPBMC/PC-9", "setting": "[6]; [8]", "result": 2}, {"measurement": "IC50", "setting": "[7]; HCT-116, 24 h, read-out: IC50 (95% CI) HCT-116 24 h", "result": "> 100000", "unit": "nM"}, {"measurement": "IC50", "setting": "[7]; HCT-116, 48 h, read-out: IC50 (95% CI) HCT-116 48 h", "result": 2700, "unit": "nM"}, {"measurement": "IC50", "setting": "[7]; HCT-116, 72 h, read-out: IC50 (95% CI) HCT-116", "result": 60, "unit": "nM"}, {"measurement": "IC50", "setting": "[7]; HCT-116, 72 h, read-out: IC50 (95% CI) HCT-116 72 h", "result": 60, "unit": "nM"}, {"measurement": "SI HPBMC/HCT-116", "setting": "[7]; [8]", "result": 2.3}]}]}
